# Test results as given in patent US6875769B2, “Substituted6,6-hetero-bicyclicderivatives” (Pfizer Inc., priority 1997, dated 2005).
row,melting point,SMILES
1,124 to 126 °C,"CCC(CC)Nc1cc(C)nc2c1CCC(=O)N2c1c(C)cc(C)cc1C [Example 12, 5-(1-Ethyl-propylamino)-7-methyl-1-(2,4,6-trimethyl-phenyl)-3,4-dihydro-1H-[1,8]naphthyridin-2-one]"
2,105 to 107 °C,"CCC(CC)Oc1cc(C)nc2c1c(=O)[nH]c(=O)n2-c1c(C)cc(C)cc1C [Example 18, 5-(1-Ethyl-propoxy)-7-methyl-1-(2,4,6-trimethyl-phenyl)-1H-pyrido[2,3-d]pyrimidine-2,4-dione]"
3,125 to 127 °C,"CCC(CC)Oc1cc(C)nc2c1c(Cl)nc(=O)n2-c1c(C)cc(C)cc1C [Example 17, 4-Chloro-5-(1-ethyl-propoxy)-7-methyl-1-(2,4,6-trimethyl-phenyl)-1H-pyrido[2,3-d]pyrimidin-2-one]"
